Test results from PubChem BioAssay (NCI).
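Following 48 hours of exposure in 96-well plates, responses at five concentrations were used to interpolate endpoints linearly. Abbreviation: GI50, concentration required for 50% inhibition of growth. TGI: total growth inhibition.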

Key:
Assay in all cases: NCI anticancer screen, dose series, 48 h
T-47D breast = tested on: T-47D breast
U251 CNS = tested on: U251 CNS
HT29 colon = tested on: HT29 colon
SF-295 CNS = tested on: SF-295 CNS
OVCAR-8 ovarian = tested on: OVCAR-8 ovarian
RPMI-8226 leukemia = tested on: RPMI-8226 leukemia
OVCAR-4 ovarian = tested on: OVCAR-4 ovarian
MDA-MB-231 breast = tested on: MDA-MB-231 breast
SK-MEL-28 melanoma = tested on: SK-MEL-28 melanoma
A549 NSCLC = tested on: A549 NSCLC
HCC-2998 colon = tested on: HCC-2998 colon
COLO 205 colon = tested on: COLO 205 colon
OVCAR-3 ovarian = tested on: OVCAR-3 ovarian
TK-10 renal = tested on: TK-10 renal
MCF7 breast = tested on: MCF7 breast
NCI-H23 lung = tested on: NCI-H23 lung
SNB-19 CNS = tested on: SNB-19 CNS
ACHN renal = tested on: ACHN renal
NCI-H226 lung = tested on: NCI-H226 lung
UACC-257 melanoma = tested on: UACC-257 melanoma
SR leukemia = tested on: SR leukemia
NCI-H460 lung = tested on: NCI-H460 lung
SF-539 CNS = tested on: SF-539 CNS
KM12 colon = tested on: KM12 colon
SF-268 CNS = tested on: SF-268 CNS
HCT-15 colon = tested on: HCT-15 colon
A498 renal = tested on: A498 renal
HOP-62 NSCLC = tested on: HOP-62 NSCLC
LOX IMVI melanoma = tested on: LOX IMVI melanoma
MALME-3M melanoma = tested on: MALME-3M melanoma
HOP-92 NSCLC = tested on: HOP-92 NSCLC
CCRF-CEM leukemia = tested on: CCRF-CEM leukemia
UACC-62 melanoma = tested on: UACC-62 melanoma
SK-OV-3 ovarian = tested on: SK-OV-3 ovarian
SK-MEL-2 melanoma = tested on: SK-MEL-2 melanoma
SN12C renal = tested on: SN12C renal
NCI-H522 lung = tested on: NCI-H522 lung
IGROV1 ovarian = tested on: IGROV1 ovarian
EKVX NSCLC = tested on: EKVX NSCLC
SNB-75 CNS = tested on: SNB-75 CNS
RXF 393 renal = tested on: RXF 393 renal
UO-31 renal = tested on: UO-31 renal
HL-60(TB) leukemia = tested on: HL-60(TB) leukemia
K-562 leukemia = tested on: K-562 leukemia
MDA-MB-435 = tested on: MDA-MB-435
OVCAR-5 ovarian = tested on: OVCAR-5 ovarian
SW-620 colon = tested on: SW-620 colon
SK-MEL-5 melanoma = tested on: SK-MEL-5 melanoma
PC-3 prostate = tested on: PC-3 prostate
MOLT-4 leukemia = tested on: MOLT-4 leukemia
NCI/ADR-RES ovarian = tested on: NCI/ADR-RES ovarian
HS 578T breast = tested on: HS 578T breast

CC1=CC(=O)CC(C)(C)[C@@]1(O)/C=C/C(C)=C\C(=O)O
GI50 (T-47D breast): 340 nM
TGI (T-47D breast): 2220 nM
GI50 (U251 CNS): 224 nM
TGI (U251 CNS): 2260 nM
GI50 (HT29 colon): 157 nM
TGI (HT29 colon): 585 nM
GI50 (SF-295 CNS): 749 nM
TGI (SF-295 CNS): 2320 nM
GI50 (OVCAR-8 ovarian): 527 nM
TGI (OVCAR-8 ovarian): 3150 nM
GI50 (RPMI-8226 leukemia): 174 nM
TGI (RPMI-8226 leukemia): 644 nM
GI50 (OVCAR-4 ovarian): 131 nM
TGI (OVCAR-4 ovarian): 464 nM
GI50 (MDA-MB-231 breast): 1140 nM
TGI (MDA-MB-231 breast): 3550 nM
GI50 (SK-MEL-28 melanoma): 172 nM
TGI (SK-MEL-28 melanoma): 669 nM
GI50 (A549 NSCLC): 408 nM
TGI (A549 NSCLC): 3500 nM
GI50 (HCC-2998 colon): 139 nM
TGI (HCC-2998 colon): 430 nM
GI50 (COLO 205 colon): 204 nM
TGI (COLO 205 colon): 950 nM
GI50 (OVCAR-3 ovarian): 148 nM
TGI (OVCAR-3 ovarian): 478 nM
GI50 (TK-10 renal): 471 nM
TGI (TK-10 renal): 2740 nM
GI50 (MCF7 breast): 165 nM
TGI (MCF7 breast): 1360 nM
GI50 (NCI-H23 lung): 376 nM
TGI (NCI-H23 lung): 2230 nM
GI50 (SNB-19 CNS): 254 nM
TGI (SNB-19 CNS): 2280 nM
GI50 (ACHN renal): 489 nM
TGI (ACHN renal): 2380 nM
GI50 (NCI-H226 lung): 148 nM
TGI (NCI-H226 lung): 499 nM
GI50 (UACC-257 melanoma): 534 nM
TGI (UACC-257 melanoma): 2520 nM
GI50 (SR leukemia): 155 nM
TGI (SR leukemia): > 50000 nM
GI50 (NCI-H460 lung): 132 nM
TGI (NCI-H460 lung): 336 nM
GI50 (SF-539 CNS): 206 nM
TGI (SF-539 CNS): 1290 nM
GI50 (KM12 colon): 210 nM
TGI (KM12 colon): 1560 nM
GI50 (SF-268 CNS): 793 nM
TGI (SF-268 CNS): 2820 nM
GI50 (HCT-15 colon): 153 nM
TGI (HCT-15 colon): 777 nM
GI50 (A498 renal): 115 nM
TGI (A498 renal): 374 nM
GI50 (HOP-62 NSCLC): 159 nM
TGI (HOP-62 NSCLC): 1050 nM
GI50 (LOX IMVI melanoma): 129 nM
TGI (LOX IMVI melanoma): 432 nM
GI50 (MALME-3M melanoma): 104 nM
TGI (MALME-3M melanoma): 329 nM
GI50 (HOP-92 NSCLC): 566 nM
TGI (HOP-92 NSCLC): 2980 nM
GI50 (CCRF-CEM leukemia): 196 nM
TGI (CCRF-CEM leukemia): > 50000 nM
GI50 (UACC-62 melanoma): 545 nM
TGI (UACC-62 melanoma): 1370 nM
GI50 (SK-OV-3 ovarian): 284 nM
TGI (SK-OV-3 ovarian): 2220 nM
GI50 (SK-MEL-2 melanoma): 923 nM
TGI (SK-MEL-2 melanoma): 2310 nM
GI50 (SN12C renal): 894 nM
TGI (SN12C renal): 3900 nM
GI50 (NCI-H522 lung): 115 nM
TGI (NCI-H522 lung): 359 nM
GI50 (IGROV1 ovarian): 157 nM
TGI (IGROV1 ovarian): 946 nM
GI50 (EKVX NSCLC): 250 nM
TGI (EKVX NSCLC): 2290 nM
GI50 (SNB-75 CNS): 517 nM
TGI (SNB-75 CNS): 1130 nM
GI50 (RXF 393 renal): 114 nM
TGI (RXF 393 renal): 327 nM
GI50 (UO-31 renal): 608 nM
TGI (UO-31 renal): 2300 nM
GI50 (HL-60(TB) leukemia): 127 nM
TGI (HL-60(TB) leukemia): 309 nM
GI50 (K-562 leukemia): 164 nM
TGI (K-562 leukemia): > 50000 nM
GI50 (MDA-MB-435): 182 nM
TGI (MDA-MB-435): 738 nM
GI50 (OVCAR-5 ovarian): 840 nM
TGI (OVCAR-5 ovarian): 2980 nM
GI50 (SW-620 colon): 285 nM
TGI (SW-620 colon): 2200 nM
GI50 (SK-MEL-5 melanoma): 111 nM
TGI (SK-MEL-5 melanoma): 252 nM
GI50 (PC-3 prostate): 347 nM
TGI (PC-3 prostate): 3460 nM
GI50 (MOLT-4 leukemia): 152 nM
TGI (MOLT-4 leukemia): > 50000 nM
GI50 (NCI/ADR-RES ovarian): 1010 nM
TGI (NCI/ADR-RES ovarian): 3760 nM
GI50 (HS 578T breast): 209 nM
TGI (HS 578T breast): 1570 nM
